Measured values from patent US8501752B2, “Methods for treating cancer and other pathological proliferating disorders by inhibiting mitosis using pyrrolo[2,3-d]pyrimidines” (Duquesne University of the Holy Ghost, priority 2005, dated 2013).
Where two headings read alike, the source gives them in different places.

What was measured:
MCF-7 cells = assay: Cytotoxicity, drug-sensitive MCF-7 cells; details: mean ± SEM for 3 experiments
Source text: (§1) These cell lines are resistant to anticancer drugs due to overexpression of the transport proteins P-glycoprotein or MRP1.

MCF-7/VP cells = assay: Cytotoxicity, MCF-7/VP cells that overexpress MRP1; details: for IC50: mean ± SEM for 3 experiments
Source text: as §1

NCI/ADR cells = assay: Cytotoxicity, NCI/ADR cells that overexpress P-glycoprotein; details: for IC50: mean ± SEM for 3 experiments
Source text: as §1

[1] = test system: T24, MCF-7, NCI/ADR, MCF-7/VP; assay: Cytotoxicity, panel of human tumor cell lines of Table 3 (text summaries)
Source text: as §1

[2] = test system: HL-60 human promyelocytic leukemia cells; assay: Flow cytometric cell cycle phase distribution; assay type: cell-based; details: 24 hours treatment
Protocol: Flow cytometric analyses were used to assess the effects of Compound 1 and various antimicrotubule drugs on the cell cycle phase distributions of HL-60 human promyelocytic leukemia cells. The percentage of cells in the G2/M phases were increased approximately 2-fold by treatment of the cells for 24 hours with either TAXOL (paclitaxel), vinblastine, colchicine, or Compound 1.

[3] = test system: T24 human bladder carcinoma cells; assay: Cytotoxicity, T24 cells; assay type: cell-based; details: for IC50: mean ± SEM for 3 experiments
P-glycoprotein = molecular target: T1, P-glycoprotein (Homo sapiens, UniProt P08183); assay: P-glycoprotein antagonism: sensitivity of NCI/ADR cells to vinblastine; assay type: cell-based; details: for effect on P-glycoprotein-mediated resistance (in words): absence or presence of 50 nM vinblastine
T1 construct: NCI/ADR cells that overexpress P-glycoprotein; endogenous in cells; host or cells: NCI/ADR cells
Source text: To determine if this is due to inhibition of drug transport activity by these proteins, the effects of these compounds on P-glycoprotein were further characterized. The effects of the compounds on the sensitivity of NCI/ADR cells to vinblastine and of MCF-7/VP cells to vincristine were examined to evaluate antagonism of P-glycoprotein and MRP1, respectively. FIGS. 4a-b present graphs of antagonism score versus concentration for P-glycoprotein and MRP1, respectively.
The Pgp antagonism score is calculated as the percentage survival of cells in the absence of vinblastine/percentage survival in the presence of vinblastine. […] The MRP1 antagonism score is calculated as the percentage survival of cells in the absence of vincristine/percentage survival in the presence of vincristine. […] Concentrations of Compounds 1-5 above their IC50 toward MCF-7 cells are not indicated. Data for one of three similar experiments is shown.

[4] = test system: NCI 60 human tumor cell lines; assay: NCI IVCLSP growth inhibition, whole panel (text summaries); assay type: cell-based; details: NCI 60 tumor panel
Protocol: FIG. 1 presents nine compounds that were tested using the National Cancer Institute (NCI) 60 human tumor cell lines. The cells lines, which represent leukemia, melanoma, and cancers of the lung, colon, brain, ovary, breast, prostate, and kidney, are listed in Table 1.
Compounds 1-9 were tested according to the NCI Developmental Therapeutics Program (DTP) In Vitro Cell Line Screening Project (IVCLSP). […] Methodology for testing under the IVCLSP is as follows: The human tumor cell lines of the cancer screening panel are grown in RPMI 1640 medium containing 5% fetal bovine serum and 2 mM L-glutamine. For a typical screening experiment, cells are inoculated into 96 well microtiter plates in 100 μL at plating densities ranging from 5,000 to 40,000 cells/well depending on the doubling time of individual cell lines. After cell inoculation, the microtiter plates are incubated at 37° C., 5% CO2, 95% air and 100% relative humidity for 24 h prior to addition of experimental drugs.
After 24 h, two plates of each cell line are fixed in situ with TCA, to represent a measurement of the cell population for each cell line at the time of drug addition (Tz). Experimental drugs are solubilized in dimethyl sulfoxide at 400-fold the desired final maximum test concentration and stored frozen prior to use. At the time of drug addition, an aliquot of frozen concentrate is thawed and diluted to twice the desired final maximum test concentration with complete medium containing 50 μg/ml gentamicin. Additional four, 10-fold or ½ log serial dilutions are made to provide a total of five drug concentrations plus control. Aliquots of 100 μl of these different drug dilutions are added to the appropriate microtiter wells already containing 100 μl of medium, resulting in the required final drug concentrations.
Following drug addition, the plates are incubated for an additional 48 h at 37° C., 5% CO2, 95% air, and 100% relative humidity. For adherent cells, the assay is terminated by the addition of cold TCA. Cells are fixed in situ by the gentle addition of 50 μl of cold 50% (w/v) TCA (final concentration, 10% TCA) and incubated for 60 minutes at 4° C. The supernatant is discarded, and the plates are washed five times with tap water and air dried. Sulforhodamine B (SRB) solution (100 μl) at 0.4% (w/v) in 1% acetic acid is added to each well, and plates are incubated for 10 minutes at room temperature. After staining, unbound dye is removed by washing five times with 1% acetic acid and the plates are air dried. Bound stain is subsequently solubilized with 10 mM trizma base, and the absorbance is read on an automated plate reader at a wavelength of 515 nm. For suspension cells, the methodology is the same except that the assay is terminated by fixing settled cells at the bottom of the wells by gently adding 50 μl of 80% TCA (final concentration, 16% TCA). Using the seven absorbance measurements [time zero, (Tz), control growth, (C), and test growth in the presence of drug at the five concentration levels (Ti)], the percentage growth is calculated at each of the drug concentrations levels. Percentage growth inhibition is calculated as: [(Ti−Tz)/(C−Tz)]×100 for concentrations for which Ti>/=Tz [(Ti−Tz)/Tz]×100 for concentrations for which Ti<Tz.
Three dose response parameters are calculated for each experimental agent. […] The drug concentration resulting in total growth inhibition (TGI) is calculated from Ti=Tz. […]

[5] = read-out: Cytotoxicity IC50, MCF-7
[6] = read-out: Cytotoxicity IC50, MCF-7/VP
[7] = read-out: Cytotoxicity IC50, NCI/ADR

T1 sequence (P08183 whole entry): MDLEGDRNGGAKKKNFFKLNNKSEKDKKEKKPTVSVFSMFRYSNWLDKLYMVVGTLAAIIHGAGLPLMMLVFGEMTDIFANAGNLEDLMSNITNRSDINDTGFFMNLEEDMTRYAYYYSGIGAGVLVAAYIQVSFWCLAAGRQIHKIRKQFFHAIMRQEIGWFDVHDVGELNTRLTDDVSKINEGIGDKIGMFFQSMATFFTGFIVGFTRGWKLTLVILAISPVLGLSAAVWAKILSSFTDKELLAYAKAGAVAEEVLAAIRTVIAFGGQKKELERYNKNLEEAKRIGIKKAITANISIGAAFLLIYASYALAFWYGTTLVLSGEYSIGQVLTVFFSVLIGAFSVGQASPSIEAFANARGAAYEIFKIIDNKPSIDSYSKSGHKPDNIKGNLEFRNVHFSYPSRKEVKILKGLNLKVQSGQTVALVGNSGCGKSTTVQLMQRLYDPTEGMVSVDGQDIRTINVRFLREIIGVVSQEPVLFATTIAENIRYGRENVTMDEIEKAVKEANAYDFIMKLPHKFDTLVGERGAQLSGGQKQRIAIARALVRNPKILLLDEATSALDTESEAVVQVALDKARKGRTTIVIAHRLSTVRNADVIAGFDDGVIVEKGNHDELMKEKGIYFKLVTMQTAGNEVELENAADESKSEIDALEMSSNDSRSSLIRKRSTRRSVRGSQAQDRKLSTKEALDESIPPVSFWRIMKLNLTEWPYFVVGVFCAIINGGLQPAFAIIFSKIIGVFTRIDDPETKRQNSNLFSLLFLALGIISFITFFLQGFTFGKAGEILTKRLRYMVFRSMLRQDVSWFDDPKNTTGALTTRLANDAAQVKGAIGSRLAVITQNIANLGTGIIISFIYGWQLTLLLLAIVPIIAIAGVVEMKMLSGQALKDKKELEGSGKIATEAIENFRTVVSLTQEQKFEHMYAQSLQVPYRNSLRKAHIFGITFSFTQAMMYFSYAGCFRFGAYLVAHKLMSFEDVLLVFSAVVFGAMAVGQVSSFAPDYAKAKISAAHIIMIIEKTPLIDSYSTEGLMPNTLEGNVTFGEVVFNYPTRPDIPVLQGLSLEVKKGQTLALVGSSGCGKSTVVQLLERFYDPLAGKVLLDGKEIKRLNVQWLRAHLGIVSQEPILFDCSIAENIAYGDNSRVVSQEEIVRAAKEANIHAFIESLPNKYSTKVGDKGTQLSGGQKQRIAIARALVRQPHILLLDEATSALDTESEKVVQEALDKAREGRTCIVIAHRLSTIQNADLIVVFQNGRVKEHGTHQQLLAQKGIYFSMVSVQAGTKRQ

Structure (SMILES): N.N.[Cl][Pt][Cl] [Cisplatin, cisplatin, reference compound]
- IC50 (MCF-7 cells; read-out: drug sensitivity (IC50), MCF-7, Table 4): 11.5 ± 4.1 µM
- Resistance (MCF-7/VP relative to MCF-7) (MCF-7/VP cells; MRP1): 0.6
- IC50 (MCF-7/VP cells; read-out: drug sensitivity (IC50), MCF-7/VP, Table 4, MRP1 overexpressing): 7 ± 2.9 µM
- Resistance (NCI/ADR relative to MCF-7) (NCI/ADR cells; P-glycoprotein): 1.1
- IC50 (NCI/ADR cells; read-out: drug sensitivity (IC50), NCI/ADR, Table 4, P-glycoprotein overexpressing): 12.2 ± 4.2 µM
- effect of P-glycoprotein / MRP1 overexpression on cell sensitivity (in words) [1]: insensitive to transporter expression

Structure (SMILES): COc1cc2c(c(OC)c1OC)-c1ccc(OC)c(=O)cc1[C@@H](NC(C)=O)CC2 [Colchicine, colchicine]
- increase of the percentage of cells in the G2/M phases ([2]; HL-60): approximately 2 fold
- cell cycle distribution, G2/M ([2]; percentage of HL-60 cells): 11.9 ± 0.3
- cell cycle distribution, G9/G1 ([2]; percentage of HL-60 cells): 84.1 ± 0.7
- cell cycle distribution, S ([2]; percentage of HL-60 cells): 4.0 ± 1.4

Structure (SMILES): COc1ccc(CCc2cn(Cc3ccccc3)c3nc(N)nc(C)c23)cc1 [Compound 2]
- change of cytotoxic potency by substitution (in words) ([3]; T24, relative to unsubstituted Compound 5): decreased the cytotoxic potency
- IC50 [3]: 31.7 ± 1.7 µM
- effect on P-glycoprotein-mediated resistance (in words) (P-glycoprotein): dose-dependent sensitization
- IC50 (MCF-7 cells; [5]): 13 ± 3.5 µM
- IC50 (MCF-7/VP cells; [6]): 22.7 ± 3.7 µM
- IC50 (NCI/ADR cells; [7]): 21.7 ± 4.4 µM

Structure (SMILES): COc1ccccc1CCc1cn(Cc2ccccc2)c2nc(N)nc(C)c12 [Compound 4]
- GI50 values, level across the tumor cell lines (in words) [4]: micromolar to millimolar range
- IC50 [3]: 2.5 ± 0.3 µM
- more potent than the others in reversing P-glycoprotein-mediated resistance (P-glycoprotein; 50 nM vinblastine): approximately 10 fold
- effect on P-glycoprotein-mediated resistance (in words) (P-glycoprotein): dose-dependent sensitization
- effect on P-glycoprotein-mediated resistance (in words) (P-glycoprotein; listed as 2-OMe analog): effective at reversing P-glycoprotein mediated resistance
- IC50 (MCF-7 cells; [5]): 2.3 ± 0.6 µM
- IC50 (MCF-7/VP cells; [6]): 2.6 ± 0.1 µM
- IC50 (NCI/ADR cells; [7]): 2.7 ± 0.4 µM
- cytotoxic potency, better than the 3- or 4-OMe [1]: about 10 times
- cytotoxic potency, better than the unsubstituted phenyl analog Compound 5 [1]: ~5 times
- effect of P-glycoprotein / MRP1 overexpression on cell sensitivity (in words) [1]: eliminated any resistance due to overexpression of either P-glycoprotein or MRP1
- less potent as an antimitotic agent than the 3,4,5-triOMe analog [1]: about 10 times
- cytotoxic potency (in words) ([1]; all tested cell lines): substantially increased the potency toward all of the tested cell lines
